Experimental data reported in patent US20100196311A1, “METHODS AND COMPOSITIONS CONTAINING mTOR INHIBITORS FOR ENHANCING IMMUNE RESPONSES” (priority 2009, published 2010).

B1: IL-12: interleukin-12, cytokine (signal 3) (protein, UniProt P43431 23-215; P43432 23-335, looked up)
Interleukin-12 subunit alpha: RVIPVSGPARCLSQSRNLLKTTDDMVKTAREKLKHYSCTAEDIDHEDITRDQTSTLKTCLPLELHKNESCLATRETSSTTRGSCLPPQKTSLMMTLCLGSIYEDLKMYQTEFQAINAALQNHNHQQIILDKGMLVAIDELMQSLNHNGETLRQKPPVGEADPYRVKMKLCILLHAFSTRVVTINRVMGYLSSA
Interleukin-12 subunit beta: MWELEKDVYVVEVDWTPDAPGETVNLTCDTPEEDDITWTSDQRHGVIGSGKTLTITVKEFLDAGQYTCHKGGETLSHSHLLLHKKENGIWSTEILKNFKNKTFLKCEAPNYSGRFTCSWLVQRNMDLKFNIKSSSSSPDSRAVTCGMASLSAEKVTLDQRDYEKYSVSCQEDVTCPTAEETLPIELALEARQQNKYENYSTSFFIRDIIKPDPPKNLQMKPLKNSQVEVSWEYPDSWSTPHSYFSLKFFVRIQRKKEKMKETEEGCNQKGAFLVEKTSTEVQCKGGNVCVQAQDRYYNSSCSKWACVPCRVRS

Columns and labels:
[1] = tested on: OT-I cells; assay: Type I effector functions (IFN-γ, CTL activity, Granzyme B) of OT-I cells, primary and secondary phase; format: cell-based, mouse
Procedure: FIG. 3. Sustained mTOR Activity Is Essential for Heritable Type I Effector Differentiation of CD8^+ T Cells. […] (D and E) OT-I cells were stimulated with Ag+B7.1 (±) IL-12 and rapamycin was added 12 hr after stimulation to evaluate cells for (D) S6K phosphorylation at 48 hr and (E) IFN-γ production at the primary and secondary phase. Experiments shown are representative of at least three (A and B) and two (C-E) independent experiments with similar outcomes. (Data are presented as mean±SEM.)
Stimulation of OT-1 Cells. Naive OT-I cells were stimulated with latex microspheres expressing H-2K^b/ovalbumin antigen and B7.1 according to known techniques. Naive OT-II cells were stimulated with anti-CD3-/anti-CD28-coated latex beads. In some experiments, the cell line derived from embryonic fibroblasts, namely, BOK (MEC.B7.SigOVA: expressing H-2K^b, OVAp and B7.1, were used as antigen-presenting cells to stimulate naive OT-I cells according to known techniques.
Evaluation of Secondary Antigen-Recall Responses In Vitro. For studying secondary antigen-recall response in vitro; OT-I cells harvested at 72 hr (primary) were washed thrice with medium and recultured (1×10^5/ml) for an additional 72 hr in a 24-well plate with IL-7 (10 ng/ml) only. At 144 hr the cells were harvested, washed thrice with medium, had numbers adjusted (5×10^5), and were restimulated with Ag/B7.1 only for an additional 24 hr (secondary stimulation). At 168 hr, the cells recovered were evaluated by flow cytometry and in vitro functional assay.
Because the presence of IL-12 during antigen stimulation augments mTOR activity and is deterministic for type I effector maturation, we analyzed whether sustained mTOR kinase activity is required for IL-12-programmed type I effector functions in OT-I cells. To do so, we stimulated naive OT-I cells with BOK±IL-12, and rapamycin and effector functions were analyzed from the primary and secondary activated OT-I pool. […] In addition, we observed a block in IL-12-induced IFN-γ production and CTL activity upon rapamycin treatment at 144 hr after primary stimulation.

[2] = tested on: Eomesodermin; assay: Eomesodermin mRNA and protein expression in OT-I cells; format: cell-based, mouse
Procedure: FIG. 5. Inhibition of mTOR Promotes Persistent Eomes Expression and Phenotypic Markers of Memory in CD8+T Cells. (A and B) OT-I cells stimulated with Ag+B7.1 (±) IL-12 and rapamycin were evaluated for (A) mRNA for Eomes at the indicated time points by RT-PCR and (B) Eomes protein expression at 72 hr by ICS. *p<0.03. (C) OT-I cells stimulated with Ag+B7.1 (±) IL-12 and rapamycin were transduced with T-bet-ER retroviral vector (±) 4-HT (10 nM) and evaluated for Eomes protein expression at 96 hr. (D) OT-I cells stimulated with Ag+B7.1 (±) IL-12 and rapamycin were evaluated for CD62L, CD69, KLRG1, CD127, and CD122 expression at 72 hr. (E) Bcl-2 and Bcl-3 mRNA expression at the indicated time points. (F and G) OT-I cells stimulated with Ag+B7.1 (±) IL-12 and rapamycin for 72 hr were washed twice and rested for an additional 72 hr in the presence of (F) IL-7 (10 ng/ml), *p<0.02, and (G) IL-15 (10 ng/ml). *p<0.02 and percent (%) cell recovery was calculated at 144 hr. […]
The closely related transcription factors T-bet and Eomesodermin are inversely regulated in effector and memory CD8^+T cells. To determine whether mTOR inhibition, which curtailed T-bet expression, led to induction of Eomesodermin, we systematically analyzed Eomesodermin mRNA expression in OT-I cells. […] We also determined whether IFN-α could also regulate mTOR activity and T-bet expression in OT-I cells.

[3] = IFN-α, Ag+B7.1-stimulated OT-I cells

Molecule | IFN-γ production [1, 3] | Eomesodermin expression [2, 3] | IFN-γ production and CTL activity ([1]; IL-12 added to BOK-stimulated OT-I cells, 72 hr) | Eomesodermin expression ([2]; IL-12 addition to Ag+B7.1 stimulation)
IFN-α | increases | increases |  | 
B1 |  |  | robust | reduced
